Bounds are passed on as bounds.

Sequence of PD-1/PD-L1 (Q9NZQ7 19-238): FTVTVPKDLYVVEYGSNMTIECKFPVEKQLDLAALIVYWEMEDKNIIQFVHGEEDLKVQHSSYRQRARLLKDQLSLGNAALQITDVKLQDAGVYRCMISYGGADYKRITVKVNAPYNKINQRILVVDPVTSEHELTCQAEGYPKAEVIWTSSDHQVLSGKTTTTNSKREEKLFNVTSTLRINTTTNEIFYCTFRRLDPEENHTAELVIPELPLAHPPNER

For this assay, the target named is PD-1/PD-L1 (Homo sapiens (Human), UniProt Q9NZQ7). The assay can be described thus: PD-1/PD-L1 Homogeneous Time-Resolved Fluorescence (HTRF) Binding Assay. The conditions noted are these: recombinant human PD-1 (3 nM) and PD-L1 (10 nM), 25° C., PBS pH 7.4. The method, boiled down:
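Fc-tagged human PD-1 (25-167, 3 nM) and His-tagged PD-L1 (19-238, 10 nM) preincubated with inhibitor 40 min in PBS pH 7.4, 0.05% Tween-20, 0.1% BSA, 1% DMSO, 25 °C. Binding detected by HTRF (Eu anti-IgG/APC anti-His, 665/620 nm) after 60 min; IC50 from percent control activity.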
(In general: TR-FRET usually uses a lanthanide donor and a delayed reading to cut background.)
Take `Cc1c(-c2nc3cc(CN4CC[C@@H](C(=O)O)C4)cc(C#N)c3o2)cccc1-c1cccc(-c2nc3c(s2)CN(CC2CC2)CC3)c1C` [Example 64, (R)-1-((7-cyano-2-(3′-(5-(cyclopropylmethyl)-4,5,6,7-tetrahydrothiazolo[5,4-c]pyridin-2-yl)-2,2′-dimethyl-[1,1′-biphenyl]-3-yl)benzo[d]oxazol-5-yl)methyl)pyrrolidine-3-carboxylic acid]: the IC50 is at most 10 nM.

For the molecule `Cc1c(-c2nc3cc(CN4CCCC[C@H]4C(=O)O)cc(Cl)c3o2)cccc1-c1cccc(NC(=O)c2nc3c(s2)CN(C)CC3)c1Cl` [Example 8, (S)-1-((7-chloro-2-(2′-chloro-2-methyl-3′-(5-methyl-4,5,6,7-tetrahydrothiazolo[5,4-c]pyridine-2-carboxamido)-[1,1′-biphenyl]-3-yl)benzo[d]oxazol-5-yl)methyl)piperidine-2-carboxylic acid], the IC50 was at most 10 nM.

Consider `Cc1c(Nc2nccn3c(CN4CC[C@H](O)C4)cnc23)cccc1-c1cccc(-c2nc3cc(CN4CC[C@H](C(=O)O)C4)cc(C#N)c3o2)c1C` [Example 152, (S)-1-((7-cyano-2-(3′-(3-(((S)-3-hydroxypyrrolidin-1-yl)methyl)imidazo[1,2-a]pyrazin-8-ylamino)-2,2′-dimethylbiphenyl-3-yl)benzo[d]oxazol-5-yl)methyl)pyrrolidine-3-carboxylic acid], for which the IC50 was at most 10 nM.

Consider `Cc1c(-c2nc3cc(CN4CC[C@@H](C(=O)O)C4)cc(C#N)c3o2)cccc1-c1cccc(-n2cc3c(n2)CN(C(C)C)C3)c1Cl` [Example 56, (R)-1-((2-(2′-chloro-3′-(5-isopropyl-5,6-dihydropyrrolo[3,4-c]pyrazol-2(4H)-yl)-2-methylbiphenyl-3-yl)-7-cyanobenzo[d]oxazol-5-yl)methyl)pyrrolidine-3-carboxylic acid], for which the IC50 is at most 10 nM.

For the molecule `Cc1c(-c2nc3cc(CN4CC[C@H](C(=O)O)C4)cc(C#N)c3o2)cccc1-c1cccc(-c2nc3c(s2)CN(CCO)CC3)c1C` [Example 67, (S)-1-((7-cyano-2-(3′-(5-(2-hydroxyethyl)-4,5,6,7-tetrahydrothiazolo[5,4-c]pyridin-2-yl)-2,2′-dimethyl-[1,1′-biphenyl]-3-yl)benzo[d]oxazol-5-yl)methyl)pyrrolidine-3-carboxylic acid], the IC50 is at most 10 nM.

On to `Cc1c(-c2nc3cc(CN4CC[C@@](C)(C(=O)O)C4)cc(C#N)c3o2)cccc1-c1cccc(NC(=O)c2nc3c(n2C)CC(C)N(C)C3)c1Cl` (stereo partly drawn) [Example 161, (3R)-1-((2-(2′-chloro-2-methyl-3′-(1,5,6-trimethyl-4,5,6,7-tetrahydro-1H-imidazo[4,5-c]pyridine-2-carboxamido)biphenyl-3-yl)-7-cyanobenzo[d]oxazol-5-yl)methyl)-3-methylpyrrolidine-3-carboxylic acid], for which the IC50 was at most 10 nM.

`Cc1c(-c2nc3cc(CN4CC[C@@H](C(=O)O)C4)cc(C#N)c3o2)cccc1-c1cccc(-c2nc3c(s2)CN(CCO)CC3)c1C` [Example 65, (R)-1-((7-cyano-2-(3′-(5-(2-hydroxyethyl)-4,5,6,7-tetrahydrothiazolo[5,4-c]pyridin-2-yl)-2,2′-dimethyl-[1,1′-biphenyl]-3-yl)benzo[d]oxazol-5-yl)methyl)pyrrolidine-3-carboxylic acid]: the IC50 was at most 10 nM.

For the molecule `Cc1c(-c2nc3cc(CN4CC[C@@H](C(=O)O)C4)cc(Cl)c3o2)cccc1-c1cccc(N2CCC(NC3CC3)CC2)c1Cl` [Example 44, (R)-1-((7-chloro-2-(2′-chloro-3′-(4-(cyclopropylamino)piperidin-1-yl)-2-methylbiphenyl-3-yl)benzo[d]oxazol-5-yl)methyl)pyrrolidine-3-carboxylic acid], the IC50 was at most 10 nM.

For `Cc1c(-c2nc3cc(CN4CC5(CC(C(=O)O)C5)C4)cc(C#N)c3o2)cccc1-c1cccc(-c2nc3c(s2)CN(C(=O)CN(C)[C@H](C)CO)C3)c1C` [Example 231, 2-((7-cyano-2-(3′-(5-(2-(((R)-1-hydroxypropan-2-yl)(methyl)amino)acetyl)-5,6-dihydro-4H-pyrrolo[3,4-d]thiazol-2-yl)-2,2′-dimethylbiphenyl-3-yl)benzo[d]oxazol-5-yl)methyl)-2-azaspiro[3.3]heptane-6-carboxylic acid], the IC50 is at most 10 nM.

For the molecule `CCN(C)CC(=O)N1Cc2nc(-c3cccc(-c4cccc(-c5nc6cc(CN7CC8(C(=O)O)CC7C8)cc(C#N)c6o5)c4C)c3C)sc2C1` [Example 220, 2-((7-cyano-2-(3′-(5-(2-(ethyl(methyl)amino)acetyl)-5,6-dihydro-4H-pyrrolo[3,4-d]thiazol-2-yl)-2,2′-dimethylbiphenyl-3-yl)benzo[d]oxazol-5-yl)methyl)-2-azabicyclo[2.1.1]hexane-4-carboxylic acid], the 50% inhibitory concentration (IC50) is at most 10 nM.

Consider `Cc1c(-c2nc3c(o2)CN(C(=O)CN(C)C)C3)cccc1-c1cccc(-c2nc3cc(CN4CC[C@@](C)(C(=O)O)C4)cc(C#N)c3o2)c1C` [Example 245, (R)-1-((7-cyano-2-(3′-(5-(dimethylglycyl)-5,6-dihydro-4H-pyrrolo[3,4-d]oxazol-2-yl)-2,2′-dimethyl[1,1′-biphenyl]-3-yl)benzo[d]oxazol-5-yl)methyl)-3-methylpyrrolidine-3-carboxylic acid], for which the IC50 was at most 10 nM.

For `Cc1c(Nc2nccc3nccnc23)cccc1-c1cccc(-c2nc3cc(CN4CC[C@@H](C(=O)O)C4)cc(Cl)c3o2)c1C` [Example 11, (R)-1-((7-chloro-2-(2,2′-dimethyl-3′-(pyrido[4,3-b]pyrazin-5-ylamino)biphenyl-3-yl)benzo[d]oxazol-5-yl)methyl)pyrrolidine-3-carboxylic acid], the half-maximal inhibitory concentration (IC50) was at most 10 nM.

Consider `Cc1c(Nc2nccc3c(CN4CC[C@H](O)C4)ccnc23)cccc1-c1cccc(-c2nc3cc(CN4CC[C@@H](C(=O)O)C4)cc(C#N)c3o2)c1C` [Example 145, (R)-1-((7-cyano-2-(3′-((4-(((S)-3-hydroxypyrrolidin-1-yl)methyl)-1,7-naphthyridin-8-yl)amino)-2,2′-dimethyl-[1,1′-biphenyl]-3-yl)benzo[d]oxazol-5-yl)methyl)pyrrolidine-3-carboxylic acid], for which the IC50 was at most 10 nM.

`Cc1c(Nc2nccc3cc(CN[C@H](C)CO)cnc23)cccc1-c1cccc(-c2nc3cc(CN4CC[C@@](C)(C(=O)O)C4)cc(C#N)c3o2)c1C` [Example 196, (R)-1-((7-cyano-2-(3′-(3-(((R)-1-hydroxypropan-2-ylamino)methyl)-1,7-naphthyridin-8-ylamino)-2,2′-dimethylbiphenyl-3-yl)benzo[d]oxazol-5-yl)methyl)-3-methylpyrrolidine-3-carboxylic acid]: the half-inhibitory concentration (IC50) was at most 10 nM.

Turning to `Cc1c(-c2nc3c(o2)CN(C(=O)CN2CCC2)C3)cccc1-c1cccc(-c2nc3cc(CN4CC[C@@H](C(=O)O)C4)cc(C#N)c3o2)c1C` [Example 130, (R)-1-((2-(3′-(5-(2-(azetidin-1-yl)acetyl)-5,6-dihydro-4H-pyrrolo[3,4-d]oxazol-2-yl)-2,2′-dimethyl-[1,1′-biphenyl]-3-yl)-7-cyanobenzo[d]oxazol-5-yl)methyl)pyrrolidine-3-carboxylic acid], the IC50 is at most 10 nM.

For `Cc1c(-c2nc3cc(CN4CC[C@@H](C(=O)O)C4)cc(C#N)c3o2)cccc1-c1cccc(-c2nc3c(s2)CN(C(=O)[C@@H]2CCCN2C)C3)c1C` [Example 107, (R)-1-((7-cyano-2-(2,2′-dimethyl-3′-(5-((8)-1-methylpyrrolidine-2-carbonyl)-5,6-dihydro-4H-pyrrolo[3,4-d]thiazol-2-yl)biphenyl-3-yl)benzo[d]oxazol-5-yl)methyl)pyrrolidine-3-carboxylic acid], the IC50 is at most 10 nM.

For `Cc1c(-c2nc3cc(CN4CC[C@@H](C(=O)O)C4)cc(C#N)c3o2)cccc1-c1cccc(-n2cc3c(n2)CN(C)C3)c1Cl` [Example 55, (R)-1-((2-(2′-chloro-2-methyl-3′-(5-methyl-5,6-dihydropyrrolo[3,4-c]pyrazol-2(4H)-yl)biphenyl-3-yl)-7-cyanobenzo[d]oxazol-5-yl)methyl)pyrrolidine-3-carboxylic acid], the IC50 was at most 10 nM.

In the case of `Cc1c(-c2nc3c(o2)CN(C(=O)CN(C)C)C3)cccc1-c1cccc(-c2nc3cc(CN4CC[C@@H](C(=O)O)C4)cc(C#N)c3o2)c1C` [Example 122, (R)-1-((7-cyano-2-(3′-(5-(dimethylglycyl)-5,6-dihydro-4H-pyrrolo[3,4-d]oxazol-2-yl)-2,2′-dimethyl-[1,1′-biphenyl]-3-yl)benzo[d]oxazol-5-yl)methyl)pyrrolidine-3-carboxylic acid], the IC50 is at most 10 nM.

`CCN1CCc2nc(-c3cccc(-c4cccc(-c5nc6cc(CN7CC[C@@H](C(=O)O)C7)cc(Cl)c6o5)c4C)c3C)sc2C1` [Example 60, (R)-1-((7-chloro-2-(3′-(5-ethyl-4,5,6,7-tetrahydrothiazolo[5,4-c]pyridin-2-yl)-2,2′-dimethyl-[1,1′-biphenyl]-3-yl)benzo[d]oxazol-5-yl)methyl)pyrrolidine-3-carboxylic acid]: the IC50 is at most 10 nM.

Regarding `Cc1c(NC(=O)c2nc3c(n2C)CCN(C2CC(F)(F)C2)C3)cccc1-c1cccc(-c2nc3cc(CN4CC[C@H](C(=O)O)C4)cc(C#N)c3o2)c1C` [Example 40, (S)-1-((7-cyano-2-(3′-(5-(3,3-difluorocyclobutyl)-1-methyl-4,5,6,7-tetrahydro-1H-imidazo[4,5-c]pyridine-2-carboxamido)-2,2′-dimethylbiphenyl-3-yl)benzo[d]oxazol-5-yl)methyl)pyrrolidine-3-carboxylic acid], the IC50 is 10 to 100 nM.

With `Cc1c(Nc2nccc3cc(CN4CC[C@@H](O)C4)cnc23)cccc1-c1cccc(-c2nc3cc(CN[C@H]4CC[C@H](CC(=O)O)CC4)cc(C#N)c3o2)c1C` [Example 184, 2-(trans-4-((7-cyano-2-(3′-(3-(((R)-3-hydroxypyrrolidin-1-yl)methyl)-1,7-naphthyridin-8-ylamino)-2,2′-dimethylbiphenyl-3-yl)benzo[d]oxazol-5-yl)methylamino)cyclohexyl)acetic acid], the IC50 was at most 10 nM.

The IC50 is the concentration needed to halve the response being measured.

(Values after patent publication US10308644B2, “Heterocyclic compounds as immunomodulators” (Incyte Corporation, priority 2016, dated 2019).)
